Earlier results, collected in patent US20050026871A1 (priority 2002, published 2005).

Columns and labels:
[1] = reported in the literature; cited from earlier work
[2] = Physicians' Desk Reference, Rocaltrol Oral Solution; cited from earlier work

NCCCC(O)(P(=O)(O)O)P(=O)(O)O [Alendronate, alendronate]
pH at which alendronate is best absorbed [1]: ~6

C=C1/C(=C\C=C2/CCC[C@]3(C)[C@@H]([C@H](C)CCCC(C)(C)O)CC[C@@H]23)C[C@@H](O)C[C@@H]1O [calcitriol, 1α,25-dihydroxyvitamin D3]
time to peak serum concentrations after ingestion [2]: three to six
